Experimental data as given in patent US11389438B2 (CHDI Foundation, Inc., priority 2019, dated 2022).
Counter-ions that a name gives are not always drawn.

Biological target: pre-formed polyQ46 or Exon1-polyQ46 aggregates (mHTT) (Homo sapiens, UniProt P42858, INS38QQQQQQQQQQQQQQQQQQQQQQQQQ)
Assay: Q46_RBA radioligand binding assay (displacement of [3H]-radioligand)
Procedure: Binding of W to mHTT. A radioligand binding assay was developed to screen for compounds which can efficiently displace a radioligand detailed elsewhere (see, e.g., U.S. Patent Publication No. from US 2017/0292150) pre-formed polyQ46 or Exon1-polyQ46 aggregates (Q46_RBA).
Aggregation of polyQ peptides is initiated by cleavage of the tag from a GST-polyQ46 or from a MBP-Exon1-polyQ46 fusion protein. The pre-formed aggregates are then incubated with compounds which compete with the [^3H]-radiolabelled ligand for binding to the aggregates. The readout is a scintillation based MicroBeta measurement of radioligand bound to aggregates. The activity was indicated as: +++, <100 nM; ++, 100-500 nM, +, >500 nM.

| Structure (SMILES) | IC50 [nM] |
| --- | --- |
| CC(C)C[C@H](NC(=O)[C@@H](O)[C@H](N)Cc1ccccc1)C(=O)NCCOCCOCCOc1ccc(C(=O)Nc2ccc3oc(-c4ccc(=O)n(C)n4)nc3c2)nc1 (stereo in doubt) [Compound 13] | < 100 |
| CNc1c(-c2cn3c(n2)sc2cc(OCCOCCOCCOCCOCC(=O)N[C@H](C(=O)N4C[C@H](O)C[C@H]4C(=O)NCc4ccc(-c5scnc5C)cc4)C(C)(C)C)ccc23)nc2cc(C#N)ccn12 [Compound 4, (2S,4R)-1-((S)-2-(tert-butyl)-17-((2-(7-cyano-3-(methylamino)-imidazo[1,2-a]pyridin-2-yl)benzo[d]imidazo[2,1-b]thiazol-7-yl)oxy)-4-oxo-6,9,12,15-tetraoxa-3-azaheptadecan-1-oyl)-4-hydroxy-N-(4-(4-methylthiazol-5-yl)benzyl)-pyrrolidine-2-carboxamide] | 100 to 500 |
| CNc1c(-c2cn3c(n2)sc2cc(OCCOc4cc(-c5scnc5C)ccc4CNC(=O)[C@@H]4C[C@@H](O)CN4C(=O)[C@H](C(C)C)N4Cc5ccccc5C4=O)ccc23)nc2cc(C#N)ccn12 [Compound 5, (2S,4R)—N-(2-(2-((2-(7-cyano-3-(methylamino)imidazo[1,2-a]pyridin-2-yl)benzo[d]imidazo[2,1-b]thiazol-7-yl)oxy)ethoxy)-4-(4-methylthiazol-5-yl)benzyl)-4-hydroxy-1-((S)-3-methyl-2-(1-oxoisoindolin-2-yl)butanoyl)pyrrolidine-2-carboxamide] | 100 to 500 |
| CNc1c(-c2cn3c(n2)sc2cc(OCCOCCOc4cc(-c5scnc5C)ccc4CNC(=O)[C@@H]4C[C@@H](O)CN4C(=O)[C@H](C(C)C)N4Cc5ccccc5C4=O)ccc23)nc2cc(C#N)ccn12 [Compound 6] | 100 to 500 |
| CNc1c(-c2cn3c(n2)sc2cc(OCCOCCOCCOc4cc(-c5scnc5C)ccc4CNC(=O)[C@@H]4C[C@@H](O)CN4C(=O)[C@H](C(C)C)N4Cc5ccccc5C4=O)ccc23)nc2cc(C#N)ccn12 [Compound 7] | 100 to 500 |
| CNc1c(-c2cn3c(n2)sc2cc(OCCOCCOCCOCCOc4cc(-c5scnc5C)ccc4CNC(=O)[C@@H]4C[C@@H](O)CN4C(=O)[C@H](C(C)C)N4Cc5ccccc5C4=O)ccc23)nc2cc(C#N)ccn12 [Compound 8] | 100 to 500 |
| CNc1c(-c2cn3c(n2)sc2cc(OCCOCCNc4cccc5c4C(=O)N(C4CCC(=O)NC4=O)C5=O)ccc23)nc2cc(C#N)ccn12 (stereo not shown) [Compound 9] | < 100 |
| CC(C)C[C@H](NC(=O)[C@@H](O)[C@H](N)Cc1ccccc1)C(=O)NCCOCCOc1ccc(C(=O)Nc2ccc3oc(-c4ccc(=O)n(C)n4)nc3c2)nc1 [Compound 12] | < 100 |
| CC(C)C[C@H](NC(=O)[C@@H](O)[C@H](N)Cc1ccccc1)C(=O)NCCOCCOCCOCCOc1ccc(C(=O)Nc2ccc3oc(-c4ccc(=O)n(C)n4)nc3c2)nc1 [Compound 14] | < 100 |
| CC(C)C[C@H](NC(=O)[C@@H](O)[C@H](N)Cc1ccccc1)C(=O)NCCOCCOCCOCCOCCOc1ccc(C(=O)Nc2ccc3oc(-c4ccc(=O)n(C)n4)nc3c2)nc1 [Compound 15] | < 100 |
| CC(C)C[C@H](NC(=O)[C@@H](O)[C@H](N)Cc1ccccc1)C(=O)NCCOCCOCCOCCOCCOCCOc1ccc(C(=O)Nc2ccc3oc(-c4ccc(=O)n(C)n4)nc3c2)nc1 [Compound 16] | < 100 |
| CC(C)C[C@H](NC(=O)[C@@H](O)[C@H](N)Cc1ccccc1)C(=O)NCCOCCOCCOCCOCCOCCOCCOCCOCCOc1ccc(C(=O)Nc2ccc3oc(-c4ccc(=O)n(C)n4)nc3c2)nc1 [Compound 17] | < 100 |
| Cc1ncsc1-c1ccc(CNC(=O)[C@H]2C[C@H](O)CN2C(=O)[C@H](NC(=O)CCOCCOCCOCCOCCOCCOCCOCCOCCOCCOCCOCCOCCOCCOCCOCCOCCOc2ccc(C(=O)Nc3ccc4oc(-c5ccc(=O)n(C)n5)nc4c3)nc2)C(C)(C)C)cc1 [Compound 27] | 100 to 500 |
| Cc1ncsc1-c1ccc(CNC(=O)[C@@H]2C[C@@H](O)CN2C(=O)[C@@H](NC(=O)COCCOc2ccc(C(=O)Nc3ccc4oc(-c5ccc(=O)n(C)n5)nc4c3)nc2)C(C)(C)C)cc1 [Compound 29] | < 100 |
| Cn1nc(-c2nc3cc(NC(=O)c4ccc(OCCOCCNc5cccc6c5C(=O)N(C5CCC(=O)NC5=O)C6=O)cn4)ccc3o2)ccc1=O (stereo not shown) [Compound 35] | < 100 |
| Cc1ncsc1-c1ccc(CNC(=O)[C@H]2C[C@H](O)CN2C(=O)[C@H](NC(=O)CCOCCOCCOCCOCCOCCOc2ccc(C(=O)Nc3ccc4oc(-c5ccc(=O)n(C)n5)nc4c3)nc2)C(C)(C)C)cc1 [Compound 41] | < 100 |

| Structure (SMILES) | IC50 [nM] |
| --- | --- |
| CC(C)C[C@H](NC(=O)[C@@H](O)[C@H](N)Cc1ccccc1)C(=O)NCCOCCOCCOc1ccc(COc2ccc3oc(-c4ccc(=O)n(C)n4)nc3c2)nc1 [Compound 49, (2S)-2-[(2S,3R)-3-Azaniumyl-2-hydroxy-4-phenylbutanamido]-4-methyl-N-{2-[2-(2-{[6-({[2-(1-methyl-6-oxo-1,6-dihydropyridazin-3-yl)-1,3-benzoxazol-5-yl]oxy}methyl)pyridin-3-yl]oxy}ethoxy)ethoxy]ethyl}pentanamide formate] | < 100 |
| COc1ccc(C(=O)Nc2ccc3oc(-c4ccc(=O)n(CCOCCOCCNC(=O)[C@H](CC(C)C)NC(=O)[C@@H](O)[C@H](N)Cc5ccccc5)n4)nc3c2)nc1 [Compound 50, N-(2-{1-[2-(2-{2-[(2S)-2-[(2S,3R)-3-Amino-2-hydroxy-4-phenylbutanamido]-4-methylpentanamido]ethoxy}ethoxy)ethyl]-6-oxo-1,6-dihydropyridazin-3-yl}-1,3-benzoxazol-5-yl)-5-methoxypyridine-2-carboxamide] | < 100 |
| Cc1ncsc1-c1ccc(CNC(=O)[C@H]2C[C@H](O)CN2C(=O)[C@H](NC(=O)COCCOc2ccc(C(=O)Nc3ccc4oc(-c5ccc(=O)n(C)n5)nc4c3)nc2)C(C)(C)C)cc1 [Compound 51, 5-[2-({[(2R)-1-[(2R,4S)-4-Hydroxy-2-({[4-(4-methyl-1,3-thiazol-5-yl)phenyl]methyl}carbamoyl)pyrrolidin-1-yl]-3,3-dimethyl-1-oxobutan-2-yl]carbamoyl}methoxy)ethoxy]-N-[2-(1-methyl-6-oxo-1,6-dihydropyridazin-3-yl)-1,3-benzoxazol-5-yl]pyridine-2-carboxamide] | < 100 |
| CC(C)C[C@H](NC(=O)CCCc1ccccc1)C(=O)NCCOCCOCCOc1ccc(COc2ccc3oc(-c4ccc(=O)n(C)n4)nc3c2)nc1 [Compound 52, (2S)-4-Methyl-N-{2-[2-(2-{[6-({[2-(1-methyl-6-oxo-1,6-dihydropyridazin-3-yl)-1,3-benzoxazol-5-yl]oxy}methyl)pyridin-3-yl]oxy}ethoxy)ethoxy]ethyl}-2-(4-phenylbutanamido)pentanamide] | < 100 |
| CC(C)C[C@H](NC(=O)[C@@H](O)[C@H](N)Cc1ccccc1)C(=O)NCCOCCOCCOc1ccc(NC(=O)c2ccn3c(n2)nc2ccccc23)cn1 [Compound 59, N-{6-[2-(2-{2-[(2S)-2-[(2S,3R)-3-amino-2-hydroxy-4-phenylbutanamido]-4-methylpentanamido]ethoxy}ethoxy)ethoxy]pyridin-3-yl}-1,8,10-triazatricyclo[7.4.0.0^2,7]trideca-2,4,6,8,10,12-hexaene-11-carboxamide] | < 100 |
| CC(C)C[C@H](NC(=O)[C@@H](O)[C@H](N)Cc1ccccc1)C(=O)NCCOCCOCCNc1ccc(NC(=O)c2ccn3c(n2)nc2ccccc23)cn1 [Compound 60, N-(6-{[2-(2-{2-[(2S)-2-[(2S,3R)-3-azaniumyl-2-hydroxy-4-phenylbutanamido]-4-methylpentanamido]ethoxy}ethoxy)ethyl]amino}pyridin-3-yl)-1,8,10-triazatricyclo[7.4.0.0^2,7]trideca-2,4,6,8,10,12-hexaene-11-carboxamide formate] | < 100 |
| CC(C)C[C@H](NC(=O)[C@@H](O)[C@H](N)Cc1ccccc1)C(=O)NCCOCCOCCOc1ccc(C(=O)Nc2ccc3oc(-c4cccnc4)nc3c2)nc1 [Compound 61] | < 100 |
| CC(C)C[C@H](NC(=O)[C@@H](O)[C@H](N)Cc1ccccc1)C(=O)NCCOCCOCCOCCOc1ccc(C(=O)Nc2ccc3oc(-c4cccnc4)nc3c2)nc1 [Compound 62, 5-{2-[2-(2-{2-[(2S)-2-[(2S,3R)-3-Azaniumyl-2-hydroxy-4-phenylbutanamido]-4-methylpentanamido]ethoxy}ethoxy)ethoxy]ethoxy}-N-[2-(pyridin-3-yl)-1,3-benzoxazol-5-yl]pyridine-2-carboxamide diformate] | < 100 |
| Cc1ccc2nc(-c3ccc(NCCOCCOCCOc4cccc5c4C(=O)N(C4CCC(=O)NC4=O)C5=O)cc3)sc2c1 (stereo not shown) [Compound 63] | < 100 |
| Cc1ccc2nc(-c3ccc(NCCOCCOCC(=O)N[C@H](C(=O)N4C[C@H](O)C[C@H]4C(=O)NCc4ccc(-c5scnc5C)cc4)C(C)(C)C)cc3)sc2c1 [Compound 64] | > 500 |
| Cc1ccc2nc(-c3ccc(NCCOCCOCCNc4cccc5c4C(=O)N(C4CCC(=O)NC4=O)C5=O)cc3)sc2c1 (stereo not shown) [Compound 65] | 100 to 500 |
| Cc1ccc2nc(-c3ccc(NC(=O)COCCOCCNC(=O)[C@H](CC(C)C)NC(=O)[C@@H](O)[C@H](N)Cc4ccccc4)cc3)sc2c1 [Compound 66] | 100 to 500 |
| Cc1ccc2nc(-c3ccc(NCCOCCOCCOc4cc(-c5scnc5C)ccc4CNC(=O)C4C[C@@H](O)CN4C(=O)[C@H](C(C)C)N4Cc5ccccc5C4=O)cc3)sc2c1 (stereo partly shown) [Compound 67] | 100 to 500 |
| Cc1ccc2nc(-c3ccc(NCCOCCOCCOCCNc4cccc5c4C(=O)N(C4CCC(=O)NC4=O)C5=O)cc3)sc2c1 (stereo not shown) [Compound 68] | 100 to 500 |
| COc1ccc(NC(=O)c2ccnc(N(CCOCCOCCNC(=O)[C@H](CC(C)C)NC(=O)[C@@H](O)[C@H](N)Cc3ccccc3)c3ccccc3)n2)cn1 [Compound 69] | > 500 |
